Results from patent US20260256792A1, “TREATMENT OF CHRONIC SPONTANEOUS URTICARIA BY ADMINISTERING (R)-2-[3-[4-AMINO-3-(2-FLUORO-4-PHENOXY-PHENYL)PYRAZOLO[3,4-D]PYRIMIDIN-1-YL]PIPERIDINE-1-CARBONYL]-4-METHYL-4-[4-(OXETAN-3-YL)PIPERAZIN-1-YL]PENT-2-ENENITRILE” (priority 2023, published 2026).

System: moderate-to-severe chronic spontaneous urticaria (CSU)
Assay: Phase 2 CSU study: urticaria activity score over 7 days (UAS7)
Format: in vivo, human
Design: key to UAS7 Median / UAS7 Change from baseline Median / UAS7 change from baseline, Q1 / UAS7 change from baseline, Q3 / UAS7 change from baseline, Max / UAS7 Change from baseline LS Mean (SE): UAS7 points; daily UAS score ranges 0–6 points/day, over 7 days
Conditions: for UAS7 Post-baseline Mean (SD) / UAS7 % Change difference for rilzabrutinib vs. placebo LS Mean (95% CI) / UAS7 % Change from baseline LS Mean (SE) / UAS7 Change difference for rilzabrutinib vs. placebo LS Mean (95% CI) / UAS7 Change from baseline LS Mean (SE): Omalizumab-Naïve Population; for Change from Baseline in UAS7 at Week 12: LS Mean (SE) / Change from Baseline in UAS7 at Week 12: LS Mean Diff vs. placebo (95% CI) / Change from Baseline in UAS7 at Week 12: Mean (SD): Omalizumab-Naïve
Source text: The study comprises a 12 week, randomized, double-blind, placebo-controlled, multi-center, dose-ranging efficacy and safety phase, followed by a 40 week open label extension (OLE) phase (see FIG. 1). The study consists of three phases and an optional OLE phase. […] Clinically, CSU is characterized by the spontaneous and recurrent appearance of pruritic hives. The proposed primary endpoints were the UAS7 at Week 12 in EU and EU reference countries and the ISS7 in the US. Regardless of where a participant was from, all assessments were the same. The UAS7 score is a composite score containing both the HSS7 and the ISS7. This allowed a global assessment of the two key components of urticaria: hives and itch. […] The UAS is a validated PRO measure. […] The daily UAS scores range from 0 to 6 point/day. […] Patients were to complete the UAS using the e-diary. […] The following secondary endpoints were to be analyzed using the same approach as for the primary endpoint: • Change from baseline in UAS7 at Week 4 • Change from baseline in UAS7 at Week 12 (for US and US reference countries) • Change from baseline in ISS7 at Week 12 (except US and US reference countries) • Change from baseline in HSS7 at Week 12 The following responder secondary endpoints were to be analyzed using the Cochran-Mantel-Haenszel test adjusted by region: • Proportion of participants with UAS7<6 at Week 12 • Proportion of participants with UAS7=0 at Week 12 Participants who received selected prohibited medications and/or rescue medications were to be considered as non-responders for time points after the medication usage. For other participants, all available data including those collected during the off-treatment period were to be used to determine the responder/non-responder status. Missing data were to be considered as non-responders.

[1] = Age group (years) <44 (Median), 400 mg BID
[2] = Age group (years) <44 (Median), 400 mg QPM
[3] = Age group (years) <44 (Median), 400 mg TID
[4] = Age group (years) <65, 400 mg BID
[5] = Age group (years) <65, 400 mg QPM
[6] = Age group (years) <65, 400 mg TID
[7] = Age group (years) ≥44 (Median), 400 mg BID

CC(C)(C=C(C#N)C(=O)N1CCC[C@@H](n2nc(-c3ccc(Oc4ccccc4)cc3F)c3c(N)ncnc32)C1)N1CCN(C2COC2)CC1 [rilzabrutinib, (R)-2-[3-[4-amino-3-(2-fluoro-4-phenoxy-phenyl)pyrazolo[3,4-d]pyrimidin-1-yl]piperidine-1-carbonyl]-4-methyl-4-[4-(oxetan-3-yl)piperazin-1-yl]pent-2-enenitrile]
UAS7 Post-baseline Mean (SD) (400 mg QPM, Week 3): 22.01 (9.00)
UAS7 % Change difference for rilzabrutinib vs. placebo LS Mean (95% CI) (400 mg QPM, Week 4): −8.22%
UAS7 % Change from baseline LS Mean (SE) (400 mg QPM, Week 4): −28.63 (5.66) %
UAS7 Change difference for rilzabrutinib vs. placebo LS Mean (95% CI) (400 mg QPM, Week 4): −2.08
UAS7 Change from baseline LS Mean (SE) (400 mg QPM, Week 4): −9.14 (1.66)
UAS7 Post-baseline Mean (SD) (400 mg QPM, Week 4): 21.92 (8.82)
UAS7 Post-baseline Mean (SD) (400 mg QPM, Week 5): 20.63 (9.18)
UAS7 Post-baseline Mean (SD) (400 mg QPM, Week 6): 20.21 (10.42)
UAS7 Post-baseline Mean (SD) (400 mg QPM, Week 7): 21.11 (10.03)
UAS7 Post-baseline Mean (SD) (400 mg QPM, Week 9): 20.25 (10.25)
UAS7 Post-baseline Mean (SD) (400 mg QPM, Week 10): 20.27 (10.69)
UAS7 Post-baseline Mean (SD) (400 mg QPM, Week 11): 21.17 (11.16)
UAS7 % Change difference for rilzabrutinib vs. placebo LS Mean (95% CI) (400 mg QPM, Week 12): −4.51%
UAS7 % Change from baseline LS Mean (SE) (400 mg QPM, Week 12): −34.79 (6.80) %
UAS7 Change difference for rilzabrutinib vs. placebo LS Mean (95% CI) (400 mg QPM, Week 12): 0.40
UAS7 Change from baseline LS Mean (SE) (400 mg QPM, Week 12): −9.74 (2.00)
UAS7 % Change difference for rilzabrutinib vs. placebo LS Mean (95% CI) (400 mg TID, Week 1): −27.13%
UAS7 % Change from baseline LS Mean (SE) (400 mg TID, Week 1): −36.60 (5.66) %
UAS7 Change difference for rilzabrutinib vs. placebo LS Mean (95% CI) (400 mg TID, Week 1): −7.89
UAS7 Change from baseline LS Mean (SE) (400 mg TID, Week 1): −11.44 (1.56)
UAS7 Post-baseline Mean (SD) (400 mg TID, Week 1): 17.77 (10.26)
UAS7 % Change difference for rilzabrutinib vs. placebo LS Mean (95% CI) (400 mg TID, Week 2): −27.13%
UAS7 % Change from baseline LS Mean (SE) (400 mg TID, Week 2): −44.90 (5.51) %
UAS7 Change difference for rilzabrutinib vs. placebo LS Mean (95% CI) (400 mg TID, Week 2): −7.73
UAS7 Change from baseline LS Mean (SE) (400 mg TID, Week 2): −13.63 (1.56)
UAS7 Post-baseline Mean (SD) (400 mg TID, Week 2): 15.65 (10.66)
UAS7 % Change difference for rilzabrutinib vs. placebo LS Mean (95% CI) (400 mg TID, Week 3): −27.19%
UAS7 % Change from baseline LS Mean (SE) (400 mg TID, Week 3): −47.14 (5.69) %
UAS7 Change difference for rilzabrutinib vs. placebo LS Mean (95% CI) (400 mg TID, Week 3): −6.90
UAS7 Change from baseline LS Mean (SE) (400 mg TID, Week 3): −13.83 (1.65)
UAS7 Post-baseline Mean (SD) (400 mg TID, Week 3): 15.37 (9.87)
UAS7 % Change difference for rilzabrutinib vs. placebo LS Mean (95% CI) (400 mg TID, Week 4): −26.33%
UAS7 % Change from baseline LS Mean (SE) (400 mg TID, Week 4): −46.75 (5.92) %
UAS7 Change difference for rilzabrutinib vs. placebo LS Mean (95% CI) (400 mg TID, Week 4): −6.60
UAS7 Change from baseline LS Mean (SE) (400 mg TID, Week 4): −13.66 (1.72)
UAS7 Post-baseline Mean (SD) (400 mg TID, Week 4): 14.65 (9.61)
UAS7 Change difference for rilzabrutinib vs. placebo LS Mean (95% CI) (400 mg TID, Week 5): −5.10
UAS7 Change from baseline LS Mean (SE) (400 mg TID, Week 5): −15.54 (1.72)
UAS7 Post-baseline Mean (SD) (400 mg TID, Week 5): 13.41 (10.60)
UAS7 Post-baseline Mean (SD) (400 mg TID, Week 6): 14.10 (11.23)
UAS7 Post-baseline Mean (SD) (400 mg TID, Week 7): 13.54 (9.34)
UAS7 Post-baseline Mean (SD) (400 mg TID, Week 8): 13.36 (9.81)
UAS7 Post-baseline Mean (SD) (400 mg TID, Week 9): 12.57 (9.72)
UAS7 Post-baseline Mean (SD) (400 mg TID, Week 10): 12.61 (9.89)
UAS7 Post-baseline Mean (SD) (400 mg TID, Week 12): 11.00 (9.90)
Change from Baseline in UAS7 at Week 12: LS Mean (SE) [1]: −13.80 (2.95)
Change from Baseline in UAS7 at Week 12: LS Mean Diff vs. placebo (95% CI) [1]: −5.42 (−13.05, 2.21)
Change from Baseline in UAS7 at Week 12: Mean (SD) [1]: −11.98 (9.69)
Change from Baseline in UAS7 at Week 12: LS Mean (SE) [2]: −9.54 (2.74)
Change from Baseline in UAS7 at Week 12: Mean (SD) [2]: −10.45 (10.67)
Change from Baseline in UAS7 at Week 12: LS Mean (SE) [3]: −16.19 (3.68)
Change from Baseline in UAS7 at Week 12: LS Mean Diff vs. placebo (95% CI) [3]: −7.80 (−16.46, 0.86)
Change from Baseline in UAS7 at Week 12: Mean (SD) [3]: −18.69 (10.55)
Change from Baseline in UAS7 at Week 12: LS Mean (SE) [4]: −13.99 (2.04)
Change from Baseline in UAS7 at Week 12: LS Mean Diff vs. placebo (95% CI) [4]: −3.58 (−9.19, 2.03)
Change from Baseline in UAS7 at Week 12: Mean (SD) [4]: −13.91 (11.95)
Change from Baseline in UAS7 at Week 12: LS Mean (SE) [5]: −9.12 (1.96)
Change from Baseline in UAS7 at Week 12: LS Mean Diff vs. placebo (95% CI) [5]: 1.30 (−4.27, 6.86)
Change from Baseline in UAS7 at Week 12: Mean (SD) [5]: −10.37 (9.46)
Change from Baseline in UAS7 at Week 12: LS Mean (SE) [6]: −16.30 (2.11)
Change from Baseline in UAS7 at Week 12: LS Mean Diff vs. placebo (95% CI) [6]: −5.88 (−11.58, −0.19)
Change from Baseline in UAS7 at Week 12: Mean (SD) [6]: −18.19 (11.00)
Change from Baseline in UAS7 at Week 12: LS Mean (SE) [7]: −15.12 (2.72)
Change from Baseline in UAS7 at Week 12: LS Mean Diff vs. placebo (95% CI) [7]: −3.56 (−11.91, 4.80)
Change from Baseline in UAS7 at Week 12: Mean (SD) [7]: −16.63 (13.80)
Change from Baseline in UAS7 at Week 12: LS Mean (SE) (Age group (years) ≥44 (Median), 400 mg QPM): −8.84 (2.81)
